In patent US20200038416A1, “METHODS OF TREATING CARDIAC CONDUCTION DEFECTS USING AMINOSTEROL COMPOSITIONS” (Enterin, Inc., priority 2018, published 2020):
Where “and” joins values, the source holds several entries; their conditions need not be identical. Identical values can stand only once.

Columns and labels:
[1] = test system: patients with PD; test: CNS symptoms in Stage 2 (UPDRS, MMSE, PDHQ, BDI-II, hallucinations); assay type: in vivo, human; conditions: for patients whose hallucinations or delusions improved or disappeared during treatment: 6 patients with hallucinations (5) or delusions (1) at baseline
Source text: Exploratory end-points, in addition to constipation, included for example, (i) depression assessed using the Beck Depression Inventory (BDI-II) (Steer et al. 2000) and Unified Parkinson's Disease Rating Scale (UPDRS); (ii) cognition assessed using the Mini Mental State Examination (MMSE), Unified Parkinson's Disease Rating Scale (UPDRS), and Trail Making Test (TMT); (iii) sleep and REM-behavior disorder (RBD) using a daily sleep diary, I-Button Temperature Assessment, a REM sleep behavior disorder (RBD) questionnaire (RBDQ) (Stiasny-Kolster et al. 2007), and the UPDRS; (iv) hallucinations assessed using the PD hallucinations questionnaire (PDHQ) (Papapetropoulos et al. 2008), the UPDRS, and direct questioning; (v) fatigue using the Parkinson's Disease Fatigue Scale (PFS-16) and the UPDRS; (vi) motor functions using the UPDRS; and (vii) non-motor functions using the UPDRS.
Assessments were made at baseline and at the end of the fixed dose and washout periods. Circadian system status was evaluated by continuously monitoring wrist skin temperature (Thermochron iButton DS1921H; Maxim, Dallas) following published procedures (Sarabia et al. 2008).
An exploratory analysis was done with respect to the sleep data, the body temperature data, mood, fatigue, hallucinations, cognition and other motor and non-motor symptoms of PD. Continuous measurements within a subject were compared with a paired t-test and continuous measurements between subject groups were compared with a two-group t-test. Categorical data were compared with a chi-squared test or a Fisher's exact test if the expected cell counts are too small for a chi-squared test.
CNS symptoms were evaluated at baseline and at the end of the fixed dose period and the wash-out period (Table 12). Total UPDRS score was 64.4 at baseline, 60.6 at the end of the fixed dose period and 55.7 at the end of the wash-out period (p=0.002); similarly, the motor component of the UPDRS improved from 35.3 at baseline to 33.3 at the end of fixed dose to 30.2 at the end of wash-out (p=0.006). MMSE improved from 28.4 at baseline to 28.7 during treatment and to 29.3 during wash-out (p=0.0006). […] PDHQ improved from 1.3 at baseline to 1.8 during treatment and 0.9 during wash-out (p=0.03). Hallucinations were reported by 5 patients at baseline and delusions in 1 patient. […] The frequency of arm or leg thrashing reported in the sleep diary diminished progressively from 2.2 episodes/week at baseline to 0 at maximal dose. […] Unlike stool-related indices, the improvement in many CNS symptoms persisted during wash-out.

[2] = test system: patients with PD and constipation; test: Phase 2 trial safety and adverse event profile (Stages 1 and 2); assay type: in vivo, human
Procedure: Tolerability limits included diarrhea or vomiting.
In Stage 2, 34 patients were evaluated.

[3] = target: αS (Homo sapiens, UniProt P37840); conditions: in vitro; cited from earlier work
[4] = Stage 1, 10 dosed, unrelated to ENT-01

SMILES: CC(C)[C@@H](CC[C@@H](C)[C@H]1CC[C@H]2[C@@H]3[C@H](O)C[C@H]4C[C@@H](NCCCNCCCCN)CC[C@]4(C)[C@H]3CC[C@]12C)OS(=O)(=O)O (single isomer, unassigned) [squalamine (ENT-01), squalamine]
- patients whose hallucinations or delusions improved or disappeared during treatment [1]: five and 5 of 6
- patients whose hallucinations or delusions improved or disappeared during treatment ([1]; listed as ENT-01): five
- improvement in Part 1 of the UPDRS ([1]; baseline 11.6 to wash-out 9.5): ~20%
- time hallucinations/delusions did not return following discontinuation ([1]; single patients): 4 weeks and 2 weeks
- share of AEs confined to the GI tract ([2]; Stage 1): 88%
- patients with diarrhea ([2]; Stage 1, 4/10): 40%
- patients with nausea ([2]; Stage 1, 4/10): 40%
- Abdominal pain, Mild: patients with adverse event ([2]; Stage 1, 10 dosed): 2 (20) n, %
- Abdominal pain, Moderate: patients with adverse event ([2]; Stage 1, 10 dosed): 3 (30) n, %
- Blood in urine, Moderate: patients with adverse event ([2]; Stage 1, 10 dosed): 0 n, %
- Diarrhea, Mild: patients with adverse event ([2]; Stage 1, 10 dosed): 1 (10) n, %
- Diarrhea, Moderate: patients with adverse event ([2]; Stage 1, 10 dosed): 3 (30) n, %
- Diarrhea, Severe: patients with adverse event ([2]; Stage 1, 10 dosed): 0 n, %
- Difficulty falling asleep, Mild: patients with adverse event ([2]; Stage 1, 10 dosed): 0 n, %
- Difficulty falling asleep, Moderate: patients with adverse event ([2]; Stage 1, 10 dosed): 0 n, %
- Dizziness, Mild: patients with adverse event ([2]; Stage 1, 10 dosed): 0 n, %
- Dizziness, Moderate: patients with adverse event ([2]; Stage 1, 10 dosed): 0 n, %
- Eye infection, Mild: patients with adverse event ([2]; Stage 1, 10 dosed): 0 n, %
- Eye infection, Moderate: patients with adverse event ([2]; Stage 1, 10 dosed): 0 n, %
- Flatulence, Mild: patients with adverse event ([2]; Stage 1, 10 dosed): 2 (20) n, %
- Flatulence, Moderate: patients with adverse event ([2]; Stage 1, 10 dosed): 0 n, %
- Headache, Mild: patients with adverse event ([2]; Stage 1, 10 dosed): 1 (10) n, %
- Headache, Moderate: patients with adverse event ([2]; Stage 1, 10 dosed): 0 n, %
- Increased urinary frequency, Mild: patients with adverse event ([2]; Stage 1, 10 dosed): 0 n, %
- Increased urinary frequency, Moderate: patients with adverse event ([2]; Stage 1, 10 dosed): 0 n, %
- Loss of appetite, Moderate: patients with adverse event ([2]; Stage 1, 10 dosed): 0 n, %
- Lower GI bleed, Severe: patients with adverse event ([2]; Stage 1, 10 dosed): 0 n, %
- Nausea, Mild: patients with adverse event ([2]; Stage 1, 10 dosed): 4 (40) n, %
- Nausea, Moderate: patients with adverse event ([2]; Stage 1, 10 dosed): 0 n, %
- Skin lesions-rash, Mild: patients with adverse event ([2]; Stage 1, 10 dosed): 0 n, %
- Skin lesions-rash, Moderate: patients with adverse event ([2]; Stage 1, 10 dosed): 0 n, %
- Urinary retention, Mild: patients with adverse event ([2]; Stage 1, 10 dosed): 0 n, %
- Urinary retention, Moderate: patients with adverse event ([2]; Stage 1, 10 dosed): 0 n, %
- Urinary tract infection, Mild: patients with adverse event ([2]; Stage 1, 10 dosed): 0 n, %
- Urinary tract infection, Moderate: patients with adverse event ([2]; Stage 1, 10 dosed): 0 n, %
- Vomiting, Mild: patients with adverse event ([2]; Stage 1, 10 dosed): 1 (10) n, %
- Vomiting, Moderate: patients with adverse event ([2]; Stage 1, 10 dosed): 0 n, %
- Worsening acid reflux, Mild: patients with adverse event ([2]; Stage 1, 10 dosed): 0 n, %
- Worsening acid reflux, Moderate: patients with adverse event ([2]; Stage 1, 10 dosed): 0 n, %
- Worsening hemorrhoid, Mild: patients with adverse event ([2]; Stage 1, 10 dosed): 0 n, %
- Worsening hemorrhoid, Moderate: patients with adverse event ([2]; Stage 1, 10 dosed): 0 n, %
- Blood in urine, Mild: patients with adverse event [2, 4]: 1 (10) n, %
- Loss of appetite, Mild: patients with adverse event [2, 4]: 1 (10) n, %
- share of AEs confined to the GI tract ([2]; Stage 2): 63%
- Abdominal pain, Mild: patients with adverse event ([2]; Stage 2, 34 dosed): 4 n
- Abdominal pain, Moderate: patients with adverse event ([2]; Stage 2, 34 dosed): 2 n
- Blood in urine, Mild: patients with adverse event ([2]; Stage 2, 34 dosed): 0 n
- Blood in urine, Moderate: patients with adverse event ([2]; Stage 2, 34 dosed): 0 n
- Diarrhea, Mild: patients with adverse event ([2]; Stage 2, 34 dosed): 12 n
- Diarrhea, Moderate: patients with adverse event ([2]; Stage 2, 34 dosed): 2 n
- Diarrhea, Severe: patients with adverse event ([2]; Stage 2, 34 dosed): 1 n
- Difficulty falling asleep, Mild: patients with adverse event ([2]; Stage 2, 34 dosed): 1 n
- Difficulty falling asleep, Moderate: patients with adverse event ([2]; Stage 2, 34 dosed): 0 n
- Dizziness, Mild: patients with adverse event ([2]; Stage 2, 34 dosed): 7 n
- Dizziness, Moderate: patients with adverse event ([2]; Stage 2, 34 dosed): 1 n
- Eye infection, Mild: patients with adverse event ([2]; Stage 2, 34 dosed): 1 n
- Eye infection, Moderate: patients with adverse event ([2]; Stage 2, 34 dosed): 0 n
- Flatulence, Mild: patients with adverse event ([2]; Stage 2, 34 dosed): 1 n
- Flatulence, Moderate: patients with adverse event ([2]; Stage 2, 34 dosed): 0 n
- Headache, Mild: patients with adverse event ([2]; Stage 2, 34 dosed): 3 n
- Headache, Moderate: patients with adverse event ([2]; Stage 2, 34 dosed): 0 n
- Increased urinary frequency, Mild: patients with adverse event ([2]; Stage 2, 34 dosed): 2 n
- Increased urinary frequency, Moderate: patients with adverse event ([2]; Stage 2, 34 dosed): 0 n
- Loss of appetite, Mild: patients with adverse event ([2]; Stage 2, 34 dosed): 0 n
- Loss of appetite, Moderate: patients with adverse event ([2]; Stage 2, 34 dosed): 0 n
- Nausea, Mild: patients with adverse event ([2]; Stage 2, 34 dosed): 18 n
- Nausea, Moderate: patients with adverse event ([2]; Stage 2, 34 dosed): 1 n
- Skin lesions-rash, Mild: patients with adverse event ([2]; Stage 2, 34 dosed): 3 n
- Skin lesions-rash, Moderate: patients with adverse event ([2]; Stage 2, 34 dosed): 0 n
- Urinary retention, Mild: patients with adverse event ([2]; Stage 2, 34 dosed): 1 n
- Urinary retention, Moderate: patients with adverse event ([2]; Stage 2, 34 dosed): 0 n
- Urinary tract infection, Mild: patients with adverse event ([2]; Stage 2, 34 dosed): 1 n
- Urinary tract infection, Moderate: patients with adverse event ([2]; Stage 2, 34 dosed): 2 n
- Vomiting, Mild: patients with adverse event ([2]; Stage 2, 34 dosed): 2 n
- Vomiting, Moderate: patients with adverse event ([2]; Stage 2, 34 dosed): 0 n
- Worsening acid reflux, Mild: patients with adverse event ([2]; Stage 2, 34 dosed): 4 n
- Worsening acid reflux, Moderate: patients with adverse event ([2]; Stage 2, 34 dosed): 0 n
- Worsening hemorrhoid, Mild: patients with adverse event ([2]; Stage 2, 34 dosed): 1 n
- Worsening hemorrhoid, Moderate: patients with adverse event ([2]; Stage 2, 34 dosed): 0 n
- Lower GI bleed, Severe: patients with adverse event ([2]; Stage 2, colonic diverticulosis, polyp, patient on aspirin, Plavix and naproxen, unrelated to ENT-01): 1 n
- displacement of αS from membranes [3]: can displace αS from membranes in vitro
